From patent US20070010671A1, “Novel quinazoline derivatives and methods of treatment related to the use thereof” (priority 2003, published 2007)

target: MCH receptor (Homo sapiens, UniProt Q99705); test: High throughput functional screening FLIPR/FDSS6000: inhibition of MCH-evoked intracellular Ca2+ changes; format: cell-based; settings: class by percent of control at 10^-7 M or IC50
Source text: Subsequently, a functional based assay was used to confirm the lead hits, referred to as FLIPR™ (the Fluorometric Imaging Plate Reader) and FDSS6000™ (Functional Drug Screening System). This assay utilized 3 non-endozenous, constitutively active version of the MCH receptor.
The FLIPR and FDSS assays are able to detect intracellular Ca^2+ concentration in cells, which can be utilized to assess receptor activation and determine whether a candidate compound is an, for example, antagonist, inverse agonist or agonist to a Gq-coupled receptor. The concentration of free Ca^2+ in the cytosol of any cell is extremely low, whereas its concentration in the extracellular fluid and endoplasmic reticulum (ER) is very high. Thus, there is a large gradient tending to drive Ca^2+ into the cytosol across both the plasma membrane and ER. The FLIPR™ and FDSS6000™ systems (Molecular Devices Corporation, HAMAMATSU Photonics K.K.) are designed to perform functional cell-based assays, such as the measurement of intracellular calcium for high-throughput screening, The measurement of fluorescent is associated with calcium release upon activation of the Gq-coupled receptors.
Fluorometric Imaging Plate Reader system was used to allow for rapid, kinetic measurements of intracellular fluorescence in 96 well microplates (or 384 well microplates). Simultaneous measurements of fluorescence in all wells can be made by FLIPR or FDSS6000™ every second with high sensitivity and precision. These systems are ideal for measuring cell-based functional assays such as monitoring the intracellular calcium fluxes that occur within seconds after activation of the Gq coupled receptor.
Briefly, the cells are seeded into 96 well at 5.5×10^4 cells/well with complete culture media (Dulbecco's Modified Eagle Medium with 10% fetal bovine serum, 2 mMi L-glutamine, 1 mM sodium pyruvate and 0.5 mg/ml G418, pH 7.4) for the assay next day. On the day of assay, the media is removed and the cells are incubated with 100 μl of loading buffer (4 μM Fluo4-AM in complete culture media containing 2.5 mM Probenicid, 0.5 mg/ml and 0.2% bovine serum albumin) in 5% CO2 incubator at 37° C. for 1 hr. The loading buffer is removed, and the cells are washed with wash buffer (Hank's Balanced Salt Solution containing 2.5 mM Probenicid, 20 mM HEPES, 0.5 mg/ml and 0.2% bovine serum albumm, pH 7.4)). One hundred fifty μl of wash buffer containing various concentrations of test compound is added to the cells, and the cells are incubated in 5% CO2 incubator at 37° C. for 3 min. Fifty μl of wash buffer containing various concentration of MCH are added to each well, and transient changes in [Ca^2+]i evokled bee MCH are monoitored using the FLIPR, or FDSS in 96 shell plates at Ex. 488 nm and Em. 530 nm for 290 second. When antagonist activity of compound is tested, 50 nM of MCH is used.
Use of FLIPR™ and FDSS6000™ can be accomplished by following manufacturer's instruction (Molecular Device Corporation and HAMAMATSU Photonics K.K.).

Compound | class
CN(C)c1nc(N[C@H]2CC[C@@H](NC(=S)Nc3ccc(S(=O)(=O)N4CCCCC4)cc3)CC2)nc2ccccc12 [compound 357] | 3 (Class 3: The value of percent of control at 10^−7 M was more than 60% or the value of IC50 was more than 200 nM.)
CN(C)c1nc(N[C@H]2CC[C@@H](CNC(=S)NC3CCCCCCC3)CC2)nc2ccccc12 [compound 711] | 3 (Class 3: The value of percent of control at 10^−7 M was more than 60% or the value of IC50 was more than 200 nM.)
CN(C)c1nc(N[C@H]2CC[C@@H](NC(=S)NCCN3CCCCC3)CC2)nc2ccccc12 [compound 395] | 3 (Class 3: The value of percent of control at 10^−7 M was more than 60% or the value of IC50 was more than 200 nM.)
COc1ccc([N+](=O)[O-])cc1NC(=O)NC[C@H]1CC[C@@H](Nc2nc(N(C)C)c3ccccc3n2)CC1 [compound 505, N-[(cis-4-{[4-(dimethylamino)quinazolin-2-yl]amino}cyclohexyl)methyl]-N′-(2-methoxy-5-nitrophenyl)urea] | 2 (Class 2: The value of percent of control at 10^−7 M was from 40% to 60% or the value of IC50 was from 50 nM to 200 nM.)
CN(C)c1nc(N[C@H]2CC[C@@H](CNC(=S)NCc3ccccc3F)CC2)nc2ccccc12 [compound 724] | 3 (Class 3: The value of percent of control at 10^−7 M was more than 60% or the value of IC50 was more than 200 nM.)
CC(=O)c1cccc(NC(=O)NC[C@H]2CC[C@@H](Nc3nc(N(C)C)c4ccccc4n3)CC2)c1 [compound 405] | 3 (Class 3: The value of percent of control at 10^−7 M was more than 60% or the value of IC50 was more than 200 nM.)
CN(C)c1nc(N[C@H]2CC[C@@H](CNC(=O)Nc3ccc(F)c([N+](=O)[O-])c3)CC2)nc2ccccc12 [compound 436] | 3 (Class 3: The value of percent of control at 10^−7 M was more than 60% or the value of IC50 was more than 200 nM.)
CN(C)c1nc(N[C@H]2CC[C@@H](CNC(=O)Nc3ccc(-c4ccccc4)s3)CC2)nc2ccccc12 [compound 768] | 3 (Class 3: The value of percent of control at 10^−7 M was more than 60% or the value of IC50 was more than 200 nM.)
COc1cc(OC)c(NC(=S)NC[C@H]2CC[C@@H](Nc3nc(N(C)C)c4ccccc4n3)CC2)cc1Cl [compound 746] | 3 (Class 3: The value of percent of control at 10^−7 M was more than 60% or the value of IC50 was more than 200 nM.)
CN(C)c1nc(N[C@H]2CC[C@@H](CNC(=O)Nc3ccccc3C#N)CC2)nc2ccccc12 [compound 760] | 3 (Class 3: The value of percent of control at 10^−7 M was more than 60% or the value of IC50 was more than 200 nM.)
Cc1cc(NC(=O)N[C@H]2CC[C@@H](Nc3nc(N(C)C)c4ccccc4n3)CC2)c(C(F)(F)F)o1 [compound 347, N-(cis-4-{[4-(dimethylamino)quinazolin-2-yl]amino}cyclohexyl)-N′-[5-methyl-2-(trifluoromethyl)-3-furyl]urea] | 1 (Class 1: The value of percent of control at 10^−7 M was less than 40% or the value of IC50 was less than 50 nM.)
CN(C)c1nc(N[C@H]2CC[C@@H](CNC(=S)Nc3cccc(SC(F)(F)F)c3)CC2)nc2ccccc12 [compound 646] | 3 (Class 3: The value of percent of control at 10^−7 M was more than 60% or the value of IC50 was more than 200 nM.)
CN(C)c1nc(N[C@H]2CC[C@@H](NC(=S)Nc3ccc(OC(F)F)cc3)CC2)nc2ccccc12 [compound 229, N-[4-(difluoromethoxy)phenyl]-N′-(cis-4-{[4-(dimethylamino)quinazolin-2-yl]amino}cyclohexyl)thiourea] | 2 (Class 2: The value of percent of control at 10^−7 M was from 40% to 60% or the value of IC50 was from 50 nM to 200 nM.)
CCCCCCCCCCc1ccc(NC(=S)NC[C@H]2CC[C@@H](Nc3nc(N(C)C)c4ccccc4n3)CC2)cc1 [compound 738] | 3 (Class 3: The value of percent of control at 10^−7 M was more than 60% or the value of IC50 was more than 200 nM.)
CN(C)c1nc(N[C@H]2CC[C@@H](CNC(=S)Nc3ccccc3OC(F)F)CC2)nc2ccccc12 [compound 639] | 3 (Class 3: The value of percent of control at 10^−7 M was more than 60% or the value of IC50 was more than 200 nM.)

same assay, conditions: class by percent of control at 10^-7 M or by IC50; read-out: class

IC50 [nM] | Compound
50 to 200 | COc1ccc(C)cc1NC(=O)N[C@H]1CC[C@@H](Nc2nc(N(C)C)c3ccccc3n2)CC1 [compound 105, N-(cis-4-{[4-(dimethylamino)quinazolin-2-yl]amino}cyclohexyl)-N′-(2-methoxy-5-methylphenyl)urea]
50 to 200 | CN(C)c1nc(N[C@H]2CC[C@@H](NC(=S)Nc3ccc(Cl)cc3)CC2)nc2ccccc12 [compound 164]
> 200 | CN(C)c1nc(N[C@H]2CC[C@@H](NC(=O)Nc3ccccc3OC(F)(F)F)CC2)nc2ccccc12 [compound 152]
< 50 | COC(=O)[C@H](Cc1ccccc1)NC(=O)N[C@H]1CC[C@@H](Nc2nc(N(C)C)c3ccccc3n2)CC1 (relative stereo) [compound 62, methyl N-{[(cis-4-{[4-(dimethylamino)quinazolin-2-yl]amino}cyclohexyl)amino]carbonyl}phenylalaninate]
< 50 | CCc1cccc(C(C)C)c1NC(=S)N[C@H]1CC[C@@H](Nc2nc(N(C)C)c3ccccc3n2)CC1 [compound 173, N-(cis-4-{[4-(dimethylamino)quinazolin-2-yl]amino}cyclohexyl)-N′-(2-ethyl-6-isoprophylphenyl)thiourea]
< 50 | Cc1cccc(C(C)(C)C)c1NC(=O)N[C@H]1CC[C@@H](Nc2nc(N(C)C)c3ccccc3n2)CC1 [compound 116, N-(2-tert-butyl-6-methylphenyl)-N′-(cis-4-{[4-(dimethylamino)quinazolin-2-yl]amino}cyclohexyl)urea]

Compound | IC50 [nM]
CN(C)c1nc(N[C@H]2CC[C@@H](CNC(=O)Oc3ccc4ccccc4c3)CC2)nc2ccccc12 [compound 876] | > 200
N-[3-(dimethylamino)propyl]-N′-[(cis-4-{[4-(dimethylamino)-quinazolin-2-yl]amino}cyclohexyl)methyl]thiourea [compound 807] | > 200

same assay, conditions: class by percent of control at 10^−7 M or by IC50; read-out: class

IC50 [nM] | Compound
> 200 | COc1ccc(NC(=O)NC[C@H]2CC[C@@H](Nc3nc(N(C)C)c4ccccc4n3)CC2)cc1OC [Example 1018, N-(3,4-dimethoxyphenyl)-N′-[(cis-4-{[4-(dimethylamino)quinazolin-2-yl]amino}cyclohexyl)methyl]urea]
50 to 200 | CN(C)c1nc(N[C@H]2CC[C@@H](CNC(=O)Nc3ccccc3Cl)CC2)nc2ccccc12 [Example 1021, N-(2-chlorophenyl)-N′-[(cis-4-{[4-(dimethylamino)quinazolin-2-yl]amino}cyclohexyl)methyl]urea]
< 50 | CN(C)c1nc(N[C@H]2CC[C@@H](C(=O)NCc3ccc(C(F)(F)F)cc3)CC2)nc2ccccc12 [Example 1153, cis-4-{[4-(dimethylamino)quinazolin-2-yl]amino}-N-[4-(trifluoromethyl)benzyl]cyclohexanecarboxamide]
50 to 200 | COc1ccccc1NC(=O)NC[C@H]1CC[C@@H](Nc2nc(N(C)C)c3ccccc3n2)CC1 [Example 1015, N-[(cis-4-{[4-(dimethylamino)quinazolin-2-yl]amino}cyclohexyl)methyl]-N′-(2-methoxyphenyl)urea]
< 50 | COc1cccc(OC)c1CNC(=O)[C@H]1CC[C@@H](Nc2nc(N(C)C)c3ccccc3n2)CC1 [Example 1188, cis-N-(2,6-dimethoxybenzyl)-4-{[4-(dimethylamino)quinazolin-2-yl]amino}cyclohexanecarboxamide]
50 to 200 | Cc1cc(Cl)cc(Cl)c1CNC(=O)[C@H]1CC[C@@H](Nc2nc(N(C)C)c3ccccc3n2)CC1 [Example 1187, cis-N-(2,4-dichloro-6-methylbenzyl)-4-{[4-(dimethylamino)quinazolin-2-yl]amino}cyclohexanecarboxamide]
< 50 | CN(C)c1nc(N[C@H]2CC[C@@H](C(=O)NCc3cccc(OC(F)(F)F)c3)CC2)nc2ccccc12 [Example 1186, cis-4-{[4-(dimethylamino)quinazolin-2-yl)amino}-N-[3-(trifluoromethoxy)benzyl]cyclohexanecarboxamide]
